The source of these data is PubChem BioAssay (NCI).

Several values for one entry are separate records, joined by “and”; a condition that tells them apart may be missing. Identical values can stand only once.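 Interpolation was linear, between the two tested concentrations surrounding the appropriate level; five concentrations were tested over 48 hours in 96-well plates. GI50 marks 50% less growth. TGI: concentration producing complete growth inhibition.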 Where only a bound is given, the exact number is not on record here.

The first test relates to IGROV1 ovarian. Kind of test: NCI-60 cell line screen, 48 h.
Compound `O=C(O)c1ccc(S(=O)(=O)c2ccccc2[N+](=O)[O-])cc1` yielded a TGI greater than 10 µM.
Same read-out and setting: the value for `COc1ccc(/C=N/N=C(\N)NO)c(O)c1` was greater than 10 µM; that for `OCC1OC(n2cnc3c(Cl)nc(Nc4ccccc4)nc32)CC1O` (centres undefined) was 66.8 µM; that for `CC1(CF)SCc2nc3ccccc3n21` (centres undefined) was greater than 100 µM.
On the same count and under the same terms, with `Nc1cccc(Nc2nc3ccccc3nc2NS(=O)(=O)c2ccccc2)c1` the figure was 86.9 µM; with `CN(C)Cc1cc(C(=O)/C=C/c2ccccc2Cl)cc(CN(C)C)c1O`, 28 µM; with `O=C1NC(N/N=C/C(O)C(O)C(O)CO)=N/C1=C\c1ccco1` (centres undefined), greater than 100 µM.
`COc1cc(CNc2ccc(SC)cc2)cc(OC)c1OC`: the GI50 is 17.2 µM and 7.73 µM; the TGI was > 82.1 µM and 71.6 µM.
The compound `N#Cc1c(-c2ccccc2)nc(-c2ccccc2)sc1=S` gave a TGI greater than 100 µM.
Still for that read-out and setting: the value for `Cc1cc(C2(O)C=C(C(C)(C)C)C(=O)C(C(C)(C)C)=C2)c(C)cc1C1(O)C=C(C(C)(C)C)C(=O)C(C(C)(C)C)=C1` was greater than 100 µM; that for `O=C1CCCCC(=O)OC2(CCCCC2=O)CC1` (centres undefined) was greater than 100 µM.
On the same count and under the same terms, with `CC1=NN(c2ccc(S(=O)(=O)O)cc2)C2(C1)SCC(=O)N2c1nc2ccccc2s1` (centres undefined) the figure was greater than 100 µM; with `CCOC(=O)/C=C(/C(=O)OCC)n1ccc(N)nc1=O`, greater than 100 µM.
The same measure, in the same setting: the value for `CC(=O)O[C@H]1C#C/C=C\C#CC[C@@H]2C(=O)N[C@@H]12` was greater than 100 µM; that for `CCOP(=O)(OCC)c1c(C(=O)OC)cc(=O)[nH]c1-c1ccc(C)cc1` was 20.6 µM; that for `C1CCC2C(C1)CCCC2NC1=NCCO1` (centres undefined) was greater than 100 µM.
`CCC1(C)N=C(c2cnccn2)NN1c1ccc(Cl)cc1` (centres undefined) returned a TGI greater than 100 µM.
Still for that read-out and setting: the value for `Cc1cn(C2CC(n3cc(Cn4cc(Br)c(=O)[nH]c4=O)nn3)C(CO)O2)c(=O)[nH]c1=O` (centres undefined) was greater than 100 µM; that for `CC1Cn2c(nc3ccccc32)NC1=O` (centres undefined) was greater than 100 µM.

For another test, the system named is SNB-75 CNS. Kind of test: NCI-60 cell line screen, 48 h.
`O=c1c2ncn(COCCCl)c2n(-c2ccccc2)c(=S)n1-c1ccccc1` returned a TGI greater than 100 µM.
As to `O=C(O)c1ccc(S(=O)(=O)c2ccccc2[N+](=O)[O-])cc1`, the TGI is greater than 10 µM.
The same measure, in the same setting: the value for `COc1ccc(/C=N/N=C(\N)NO)c(O)c1` was 2.42 µM; that for `OCC1OC(n2cnc3c(Cl)nc(Nc4ccccc4)nc32)CC1O` (centres undefined) was greater than 100 µM; that for `CC1(CF)SCc2nc3ccccc3n21` (centres undefined) was greater than 100 µM.
Compound `Nc1cccc(Nc2nc3ccccc3nc2NS(=O)(=O)c2ccccc2)c1` showed a TGI greater than 100 µM.
Regarding `CN(C)Cc1cc(C(=O)/C=C/c2ccccc2Cl)cc(CN(C)C)c1O`, the TGI came out at 19.7 µM.
Still for that read-out and setting: with `O=C1NC(N/N=C/C(O)C(O)C(O)CO)=N/C1=C\c1ccco1` (centres undefined) the figure was greater than 100 µM.
For the compound `COc1cc(CNc2ccc(SC)cc2)cc(OC)c1OC`, the GI50 is 15.7 µM and 6.28 µM; the TGI is 86.3 µM and 65.5 µM.
Compound `N#Cc1c(-c2ccccc2)nc(-c2ccccc2)sc1=S` registered a TGI greater than 100 µM.
Still for that read-out and setting: with `Cc1cc(C2(O)C=C(C(C)(C)C)C(=O)C(C(C)(C)C)=C2)c(C)cc1C1(O)C=C(C(C)(C)C)C(=O)C(C(C)(C)C)=C1` the figure was greater than 100 µM.
The same measure, in the same setting: the value for `O=C1CCCCC(=O)OC2(CCCCC2=O)CC1` (centres undefined) was greater than 100 µM; that for `CC1=NN(c2ccc(S(=O)(=O)O)cc2)C2(C1)SCC(=O)N2c1nc2ccccc2s1` (centres undefined) was greater than 100 µM.
Turning to `CCOC(=O)/C=C(/C(=O)OCC)n1ccc(N)nc1=O`, the TGI is greater than 100 µM.
The same measure, in the same setting: with `CC(=O)O[C@H]1C#C/C=C\C#CC[C@@H]2C(=O)N[C@@H]12` the figure was greater than 90.7 µM; with `CCOP(=O)(OCC)c1c(C(=O)OC)cc(=O)[nH]c1-c1ccc(C)cc1`, 29.3 µM.
The same measure, in the same setting: the value for `C1CCC2C(C1)CCCC2NC1=NCCO1` (centres undefined) was greater than 100 µM; that for `CCC1(C)N=C(c2cnccn2)NN1c1ccc(Cl)cc1` (centres undefined) was greater than 100 µM; that for `Cc1cn(C2CC(n3cc(Cn4cc(Br)c(=O)[nH]c4=O)nn3)C(CO)O2)c(=O)[nH]c1=O` (centres undefined) was greater than 100 µM.
On the same count and under the same terms, with `CC1Cn2c(nc3ccccc32)NC1=O` (centres undefined) the figure was greater than 100 µM.

Another test deals with CAKI-1 renal. Kind of test: NCI-60 cell line screen, 48 h.
For the compound `O=c1c2ncn(COCCCl)c2n(-c2ccccc2)c(=S)n1-c1ccccc1`, the TGI was greater than 100 µM.
Still for that read-out and setting: with `O=C(O)c1ccc(S(=O)(=O)c2ccccc2[N+](=O)[O-])cc1` the figure was greater than 10 µM; with `COc1ccc(/C=N/N=C(\N)NO)c(O)c1`, 9.58 µM; with `OCC1OC(n2cnc3c(Cl)nc(Nc4ccccc4)nc32)CC1O` (centres undefined), 3.4 µM.
With `CC1(CF)SCc2nc3ccccc3n21` (centres undefined), the TGI was greater than 100 µM.
Same read-out and setting: with `Nc1cccc(Nc2nc3ccccc3nc2NS(=O)(=O)c2ccccc2)c1` the figure was 80.3 µM; with `CN(C)Cc1cc(C(=O)/C=C/c2ccccc2Cl)cc(CN(C)C)c1O`, 14.4 µM; with `O=C1NC(N/N=C/C(O)C(O)C(O)CO)=N/C1=C\c1ccco1` (centres undefined), greater than 100 µM.
Turning to `COc1cc(CNc2ccc(SC)cc2)cc(OC)c1OC`, the GI50 is 22.5 µM and 11.1 µM; the TGI is greater than 97.1 µM.
Turning to `N#Cc1c(-c2ccccc2)nc(-c2ccccc2)sc1=S`, the TGI is greater than 100 µM.
Still for that read-out and setting: the value for `Cc1cc(C2(O)C=C(C(C)(C)C)C(=O)C(C(C)(C)C)=C2)c(C)cc1C1(O)C=C(C(C)(C)C)C(=O)C(C(C)(C)C)=C1` was greater than 100 µM; that for `O=C1CCCCC(=O)OC2(CCCCC2=O)CC1` (centres undefined) was greater than 100 µM; that for `CC1=NN(c2ccc(S(=O)(=O)O)cc2)C2(C1)SCC(=O)N2c1nc2ccccc2s1` (centres undefined) was greater than 100 µM.
The same measure, in the same setting: with `CCOC(=O)/C=C(/C(=O)OCC)n1ccc(N)nc1=O` the figure was greater than 100 µM.
On the same count and under the same terms, the value for `CC(=O)O[C@H]1C#C/C=C\C#CC[C@@H]2C(=O)N[C@@H]12` was greater than 40.1 µM.
Turning to `CCOP(=O)(OCC)c1c(C(=O)OC)cc(=O)[nH]c1-c1ccc(C)cc1`, the TGI is 19 µM.
Still for that read-out and setting: the value for `C1CCC2C(C1)CCCC2NC1=NCCO1` (centres undefined) was greater than 100 µM.
Regarding `CCC1(C)N=C(c2cnccn2)NN1c1ccc(Cl)cc1` (centres undefined), the TGI is greater than 100 µM.
Same read-out and setting: with `Cc1cn(C2CC(n3cc(Cn4cc(Br)c(=O)[nH]c4=O)nn3)C(CO)O2)c(=O)[nH]c1=O` (centres undefined) the figure was greater than 100 µM; with `CC1Cn2c(nc3ccccc32)NC1=O` (centres undefined), greater than 100 µM.

For the next test, the system named is SK-MEL-5 melanoma. Nature of the test: NCI-60 cell line screen, 48 h.
`O=c1c2ncn(COCCCl)c2n(-c2ccccc2)c(=S)n1-c1ccccc1` registered a TGI greater than 100 µM.
The same measure, in the same setting: the value for `O=C(O)c1ccc(S(=O)(=O)c2ccccc2[N+](=O)[O-])cc1` was greater than 10 µM.
The same measure, in the same setting: the value for `COc1ccc(/C=N/N=C(\N)NO)c(O)c1` was greater than 10 µM.
Still for that read-out and setting: with `OCC1OC(n2cnc3c(Cl)nc(Nc4ccccc4)nc32)CC1O` (centres undefined) the figure was greater than 100 µM.
Compound `CC1(CF)SCc2nc3ccccc3n21` (centres undefined) gave a TGI greater than 100 µM.
The same measure, in the same setting: with `Nc1cccc(Nc2nc3ccccc3nc2NS(=O)(=O)c2ccccc2)c1` the figure was 29.8 µM.
The same measure, in the same setting: the value for `CN(C)Cc1cc(C(=O)/C=C/c2ccccc2Cl)cc(CN(C)C)c1O` was 26.1 µM; that for `O=C1NC(N/N=C/C(O)C(O)C(O)CO)=N/C1=C\c1ccco1` (centres undefined) was greater than 100 µM.
Take `COc1cc(CNc2ccc(SC)cc2)cc(OC)c1OC`: the GI50 is 11.6 µM and 4.51 µM; the TGI is 59.6 µM and 16 µM.
In the case of `N#Cc1c(-c2ccccc2)nc(-c2ccccc2)sc1=S`, the TGI is greater than 100 µM.
On the same count and under the same terms, with `Cc1cc(C2(O)C=C(C(C)(C)C)C(=O)C(C(C)(C)C)=C2)c(C)cc1C1(O)C=C(C(C)(C)C)C(=O)C(C(C)(C)C)=C1` the figure was greater than 100 µM.
The same measure, in the same setting: the value for `O=C1CCCCC(=O)OC2(CCCCC2=O)CC1` (centres undefined) was greater than 100 µM.
Still for that read-out and setting: the value for `CC1=NN(c2ccc(S(=O)(=O)O)cc2)C2(C1)SCC(=O)N2c1nc2ccccc2s1` (centres undefined) was greater than 100 µM.
`CCOC(=O)/C=C(/C(=O)OCC)n1ccc(N)nc1=O` yielded a TGI greater than 100 µM.
Turning to `CC(=O)O[C@H]1C#C/C=C\C#CC[C@@H]2C(=O)N[C@@H]12`, the TGI was greater than 100 µM.
The same measure, in the same setting: with `CCOP(=O)(OCC)c1c(C(=O)OC)cc(=O)[nH]c1-c1ccc(C)cc1` the figure was 28.8 µM.
The same measure, in the same setting: the value for `C1CCC2C(C1)CCCC2NC1=NCCO1` (centres undefined) was greater than 100 µM; that for `CCC1(C)N=C(c2cnccn2)NN1c1ccc(Cl)cc1` (centres undefined) was greater than 100 µM.
On the same count and under the same terms, the value for `Cc1cn(C2CC(n3cc(Cn4cc(Br)c(=O)[nH]c4=O)nn3)C(CO)O2)c(=O)[nH]c1=O` (centres undefined) was greater than 100 µM.
In turn, `CC1Cn2c(nc3ccccc32)NC1=O` (centres undefined) showed a TGI greater than 100 µM.

The next test has as its system MDA-N. Kind of test: NCI-60 cell line screen, 48 h.
`O=c1c2ncn(COCCCl)c2n(-c2ccccc2)c(=S)n1-c1ccccc1` came in with a TGI greater than 100 µM.
Regarding `O=C(O)c1ccc(S(=O)(=O)c2ccccc2[N+](=O)[O-])cc1`, the TGI is greater than 10 µM.
Still for that read-out and setting: with `COc1ccc(/C=N/N=C(\N)NO)c(O)c1` the figure was greater than 10 µM; with `OCC1OC(n2cnc3c(Cl)nc(Nc4ccccc4)nc32)CC1O` (centres undefined), greater than 100 µM; with `CC1(CF)SCc2nc3ccccc3n21` (centres undefined), greater than 100 µM.
Still for that read-out and setting: with `Nc1cccc(Nc2nc3ccccc3nc2NS(=O)(=O)c2ccccc2)c1` the figure was greater than 100 µM.
Same read-out and setting: with `CN(C)Cc1cc(C(=O)/C=C/c2ccccc2Cl)cc(CN(C)C)c1O` the figure was 34.1 µM.
On to `O=C1NC(N/N=C/C(O)C(O)C(O)CO)=N/C1=C\c1ccco1` (centres undefined), for which the TGI was greater than 100 µM.
For the compound `COc1cc(CNc2ccc(SC)cc2)cc(OC)c1OC`, the GI50 is 3.35 µM and 1.05 µM; the TGI stood at 7.15 µM.
Take `N#Cc1c(-c2ccccc2)nc(-c2ccccc2)sc1=S`: the TGI is greater than 100 µM.
The same measure, in the same setting: with `Cc1cc(C2(O)C=C(C(C)(C)C)C(=O)C(C(C)(C)C)=C2)c(C)cc1C1(O)C=C(C(C)(C)C)C(=O)C(C(C)(C)C)=C1` the figure was greater than 100 µM; with `O=C1CCCCC(=O)OC2(CCCCC2=O)CC1` (centres undefined), greater than 100 µM.
Same read-out and setting: the value for `CC1=NN(c2ccc(S(=O)(=O)O)cc2)C2(C1)SCC(=O)N2c1nc2ccccc2s1` (centres undefined) was greater than 100 µM; that for `CCOC(=O)/C=C(/C(=O)OCC)n1ccc(N)nc1=O` was greater than 100 µM; that for `CC(=O)O[C@H]1C#C/C=C\C#CC[C@@H]2C(=O)N[C@@H]12` was greater than 100 µM.
`CCOP(=O)(OCC)c1c(C(=O)OC)cc(=O)[nH]c1-c1ccc(C)cc1` displayed a TGI greater than 61.1 µM.
On the same count and under the same terms, the value for `C1CCC2C(C1)CCCC2NC1=NCCO1` (centres undefined) was greater than 100 µM.
On the same count and under the same terms, the value for `CCC1(C)N=C(c2cnccn2)NN1c1ccc(Cl)cc1` (centres undefined) was greater than 100 µM; that for `Cc1cn(C2CC(n3cc(Cn4cc(Br)c(=O)[nH]c4=O)nn3)C(CO)O2)c(=O)[nH]c1=O` (centres undefined) was greater than 100 µM.
In the case of `CC1Cn2c(nc3ccccc32)NC1=O` (centres undefined), the TGI is greater than 100 µM.
